Results from US11382888B2, “Combination of topical medications for the treatment of skin diseases and methods of use” (American University of Beirut, priority 2019, dated 2022).

Assays:
[1] = general statement, no test described; cited from earlier work
patients with ARCI = assay: Left sided vs right sided trial of the lovastatin-cholesterol combination cream in ARCI patients; assay type: in vivo, human; design: Erythema / Total score: scale not given here; conditions: left side glycolic acid only, right side also combination cream
From the text: Each patient was given a severity score based on 5 criteria: (1) skin thickness and/or scaling; (2) pain, pruritus, and/or discomfort; (3) erythema; (4) impact of the condition on the ability to perform daily functions; and (5) the patient's subjective severity scoring, i.e., the patient's own assessment of the severity of the condition.
Five patients applied the combination cream of lovastatin and cholesterol on the right side of the body only, while the glycolic acid was applied to both sides (patients 1, 2, 3, 4, and 6).

SMILES: CC(=O)N1CCN(c2ccc(OCC3COC(Cn4ccnc4)(c4ccc(Cl)cc4Cl)O3)cc2)CC1 (racemic) [Ketoconazole, 1-acetyl-4-[4-[[2-(2,4-dichlorophenyl)-2-[(1H-imidazol-1-yl)-methyl]-1,3-dioxolan-4-yl]methoxy]phenyl]piperazine]
- solubility [1]: low solubility

SMILES: O=C(O)CO [glycolic acid, hydroxyacetic acid]
- % change (patients with ARCI; patient 1, at 2 months vs baseline total score): −5.4545%
- Ability to perform daily functions (patients with ARCI; patient 1, at 2 months): 5
- Erythema (patients with ARCI; patient 1, at 2 months): 9
- Pain/pruritis/discharge (patients with ARCI; patient 1, at 2 months): 6
- Patient severity scoring (patients with ARCI; patient 1, at 2 months): 17
- Response (patients with ARCI; patient 1, at 2 months): Mild
- Skin thickness/scaling (patients with ARCI; patient 1, at 2 months): 15
- Total score (patients with ARCI; patient 1, at 2 months): 52
- % change (patients with ARCI; patient 1, at 3 months vs baseline total score): −54.545%
- Ability to perform daily functions/to move (patients with ARCI; patient 1, at 3 months): 2
- Erythema (patients with ARCI; patient 1, at 3 months): 4
- Pain/pruritis/discharge (patients with ARCI; patient 1, at 3 months): 2
- Patient severity scoring (patients with ARCI; patient 1, at 3 months): 8
- Skin thickness/scaling (patients with ARCI; patient 1, at 3 months): 9
- Total score (patients with ARCI; patient 1, at 3 months): 25
- % change (patients with ARCI; patient 2, at 2 months vs baseline total score): −12%
- Ability to perform daily functions (patients with ARCI; patient 2, at 2 months): 5
- Erythema (patients with ARCI; patient 2, at 2 months): 6
- Pain/pruritis/discharge (patients with ARCI; patient 2, at 2 months): 6
- Patient severity scoring (patients with ARCI; patient 2, at 2 months): 17
- Response (patients with ARCI; patient 2, at 2 months): Mild
- Skin thickness/scaling (patients with ARCI; patient 2, at 2 months): 10
- Total score (patients with ARCI; patient 2, at 2 months): 44
- % change (patients with ARCI; patient 2, at 3 months vs baseline total score): −58%
- Ability to perform daily functions/to move (patients with ARCI; patient 2, at 3 months): 2
- Erythema (patients with ARCI; patient 2, at 3 months): 4
- Pain/pruritis/discharge (patients with ARCI; patient 2, at 3 months): 4
- Patient severity scoring (patients with ARCI; patient 2, at 3 months): 5
- Skin thickness/scaling (patients with ARCI; patient 2, at 3 months): 6
- Total score (patients with ARCI; patient 2, at 3 months): 21
- % change (patients with ARCI; patient 3, at 2 months vs baseline total score): −3.7037%
- Ability to perform daily functions (patients with ARCI; patient 3, at 2 months): 3
- Erythema (patients with ARCI; patient 3, at 2 months): 3
- Pain/pruritis/discharge (patients with ARCI; patient 3, at 2 months): 3
- Patient severity scoring (patients with ARCI; patient 3, at 2 months): 10
- Response (patients with ARCI; patient 3, at 2 months): Mild
- Skin thickness/scaling (patients with ARCI; patient 3, at 2 months): 7
- Total score (patients with ARCI; patient 3, at 2 months): 26
- % change (patients with ARCI; patient 3, at 3 months vs baseline total score): −40.7407%
- Ability to perform daily functions/to move (patients with ARCI; patient 3, at 3 months): 1
- Erythema (patients with ARCI; patient 3, at 3 months): 2
- Pain/pruritis/discharge (patients with ARCI; patient 3, at 3 months): 2
- Patient severity scoring (patients with ARCI; patient 3, at 3 months): 7
- Response (patients with ARCI; patient 3, at 3 months): Good
- Skin thickness/scaling (patients with ARCI; patient 3, at 3 months): 4
- Total score (patients with ARCI; patient 3, at 3 months): 16
- % change (patients with ARCI; patient 4, at 2 months vs baseline total score): −41.818%
- Ability to perform daily functions (patients with ARCI; patient 4, at 2 months): 3
- Erythema (patients with ARCI; patient 4, at 2 months): 9
- Pain/pruritis/discharge (patients with ARCI; patient 4, at 2 months): 4
- Patient severity scoring (patients with ARCI; patient 4, at 2 months): 8
- Response (patients with ARCI; patient 4, at 2 months): Good
- Skin thickness/scaling (patients with ARCI; patient 4, at 2 months): 8
- Total score (patients with ARCI; patient 4, at 2 months): 32
- % change (patients with ARCI; patient 4, at 3 months vs baseline total score): −65.455%
- Ability to perform daily functions/to move (patients with ARCI; patient 4, at 3 months): 2
- Erythema (patients with ARCI; patient 4, at 3 months): 4
- Pain/pruritis/discharge (patients with ARCI; patient 4, at 3 months): 2
- Patient severity scoring (patients with ARCI; patient 4, at 3 months): 5
- Skin thickness/scaling (patients with ARCI; patient 4, at 3 months): 6
- Total score (patients with ARCI; patient 4, at 3 months): 19
- % change (patients with ARCI; patient 6, at 2 months vs baseline total score): −7.353%
- Ability to perform daily functions (patients with ARCI; patient 6, at 2 months): 10
- Erythema (patients with ARCI; patient 6, at 2 months): 13
- Pain/pruritis/discharge (patients with ARCI; patient 6, at 2 months): 8
- Patient severity scoring (patients with ARCI; patient 6, at 2 months): 17
- Response (patients with ARCI; patient 6, at 2 months): Mild
- Skin thickness/scaling (patients with ARCI; patient 6, at 2 months): 15
- Total score (patients with ARCI; patient 6, at 2 months): 63
- % change (patients with ARCI; patient 6, at 3 months vs baseline total score): −10.2941%
- Ability to perform daily functions/to move (patients with ARCI; patient 6, at 3 months): 10
- Erythema (patients with ARCI; patient 6, at 3 months): 13
- Pain/pruritis/discharge (patients with ARCI; patient 6, at 3 months): 7
- Patient severity scoring (patients with ARCI; patient 6, at 3 months): 17
- Response (patients with ARCI; patient 6, at 3 months): Mild
- Skin thickness/scaling (patients with ARCI; patient 6, at 3 months): 14
- Total score (patients with ARCI; patient 6, at 3 months): 61
